{"source": "patent US8034817B2", "about": "“Treatment of bacterial diseases of the respiratory organs” (Bayer Pharma Aktiengesellschaft, priority 2003, dated 2011)", "key": {"[1]": {"details": "rats; serum and lungs"}, "[2]": {"tested_on": "P. aeruginosa DSM 12055", "experiment": "Efficacy in a model of lung infection with P. aeruginosa, treatment 1 and 4 hours after infection, microbe count in the lungs", "assay_type": "in vivo, P. aeruginosa (host: female Wistar rats)", "details": "lungs after 24 h relative to untreated infection control, average for 5 animals", "protocol": "Efficacy in a Model of Lung Infection with P. aeruginosa\n[…]. Various dose groups each of 5 rats were employed. The animals were sacrificed 24 hours after the infection, and the lungs were removed and homogenized with a Potter from Braun. The homogenates were plated out to determine the microbe count in the lungs."}, "[3]": {"details": "average for 3 animals"}, "[4]": {"tested_on": "P. aeruginosa DSM 12055", "experiment": "Further test with P. aeruginosa DSM 12055, single intratracheal dry powder treatment, microbe count in the lungs", "assay_type": "in vivo, P. aeruginosa (host: rats)", "details": "single intratracheal treatment 1 hour after infection, 10 mg/kg, DP-3 dry powder insufflator", "protocol": "A dose of 10 mg/kg was administered with the aid of a DP-3 dry powder insufflator (PENN-CENTURY, INC.). It is known from control investigations that about 5 to 20% of the administered dose reach the lungs."}, "[5]": {"details": "0.5 h, 7.5 mg/kg intratracheally as suspension, 7.5 mg/kg"}, "[6]": {"details": "1 h, 7.5 mg/kg intratracheally as suspension, 7.5 mg/kg"}, "[7]": {"details": "3 h, 7.5 mg/kg intratracheally as suspension, 7.5 mg/kg"}, "[8]": {"details": "5 h, 7.5 mg/kg intratracheally as suspension, 7.5 mg/kg"}}, "note": "Structures can show the parent of a compound that is named as a salt. Where two headings read alike, the source gives them in different places.", "data": [{"smiles": "COc1c(N2C[C@@H]3CCCN[C@@H]3C2)c(F)cc2c(=O)c(C(=O)O)cn(C3CC3)c12", "note": "[moxifloxacin hydrochloride, Moxifloxacin hydrochloride]", "values": [{"measurement": "Fall of the concentration after intratracheal administration to the level reached orally", "setting": "[1]", "value": "within about an hour"}]}, {"smiles": "Cl.O=C(O)c1cn(C2CC2)c2cc(N3CCNCC3)c(F)cc2c1=O", "note": "[ciprofloxacin hydrochloride]", "values": [{"measurement": "Reduction in microbe count", "setting": "[2]; 0.8 mg/kg i.t.", "value": "−1.8", "unit": "log units"}, {"measurement": "Reduction in microbe count", "setting": "[2]; 2.5 mg/kg i.t.", "value": "−1.1", "unit": "log units"}, {"measurement": "Reduction in microbe count", "setting": "[2]; 2.5 mg/kg i.v.", "value": "−2.8", "unit": "log units"}, {"measurement": "Reduction in microbe count", "setting": "[2]; 7.5 mg/kg i.t.", "value": "−2.8", "unit": "log units"}, {"measurement": "Reduction in microbe count", "setting": "[2]; 7.5 mg/kg i.v.", "value": "−3.5", "unit": "log units"}, {"measurement": "Reduction in microbe count", "setting": "[2]; 22.5 mg/kg i.v.", "value": "−5.4", "unit": "log units"}, {"measurement": "Reduction in microbe count", "setting": "[2]; 67.5 mg/kg i.v.", "value": "−8.8", "unit": "log units"}, {"measurement": "Lung concentration", "setting": "[3]; 0.25 h, 7.5 mg/kg intravenously as solution", "value": 0.61, "unit": "µg/mL"}, {"measurement": "Lung concentration", "setting": "[3]; 0.5 h, 7.5 mg/kg intratracheally as solution", "value": 1.67, "unit": "µg/mL"}, {"measurement": "Lung concentration", "setting": "[3]; 0.5 h, 7.5 mg/kg intravenously as solution", "value": 0.35, "unit": "µg/mL"}, {"measurement": "Lung concentration", "setting": "[3]; 1 h, 7.5 mg/kg intratracheally as solution", "value": 0.63, "unit": "µg/mL"}, {"measurement": "Lung concentration", "setting": "[3]; 1 h, 7.5 mg/kg intravenously as solution", "value": 0.14, "unit": "µg/mL"}, {"measurement": "Lung concentration", "setting": "[3]; 3 h, 7.5 mg/kg intratracheally as solution", "value": 0.10, "unit": "µg/mL"}, {"measurement": "Lung concentration", "setting": "[3]; 3 h, 7.5 mg/kg intravenously as solution", "value": 0, "unit": "µg/mL"}, {"measurement": "Lung concentration", "setting": "[3]; 5 h, 7.5 mg/kg intratracheally as solution", "value": 0, "unit": "µg/mL"}, {"measurement": "Lung concentration", "setting": "[3]; 5 h, 7.5 mg/kg intravenously as solution", "value": 0, "unit": "µg/mL"}]}, {"smiles": "O=C(O)c1cn(C2CC2)c2cc(N3CCNCC3)c(F)cc2c1=O", "note": "[ciprofloxacin betaine (laboratory product)]", "values": [{"measurement": "Reduction in microbe count", "setting": "[2]; 0.8 mg/kg i.t.", "value": "−4.0", "unit": "log units"}, {"measurement": "Reduction in microbe count", "setting": "[2]; 2.5 mg/kg i.t.", "value": "−5.8", "unit": "log units"}, {"measurement": "Reduction in microbe count", "setting": "[2]; 7.5 mg/kg i.t.", "value": "−10", "unit": "log units"}, {"measurement": "Lung concentration", "setting": "[3]; [5]", "value": 44.3, "unit": "µg/mL"}, {"measurement": "Lung concentration", "setting": "[3]; [6]", "value": 40.1, "unit": "µg/mL"}, {"measurement": "Lung concentration", "setting": "[3]; [7]", "value": 12.6, "unit": "µg/mL"}, {"measurement": "Lung concentration", "setting": "[3]; [8]", "value": 7.21, "unit": "µg/mL"}]}, {"smiles": "O=C(O)c1cn(C2CC2)c2cc(N3CCNCC3)c(F)cc2c1=O", "note": "[ciprofloxacin betaine (micronized), ciprofloxacin betaine]", "values": [{"measurement": "Reduction of the microbe count in the lungs compared with an untreated control group", "setting": "[4]", "value": "more than 6 log units"}, {"measurement": "Lung concentration", "setting": "[3]; 0.25 h, 7.5 mg/kg intratracheally as suspension, 7.5 mg/kg", "value": 76, "unit": "µg/mL"}, {"measurement": "Lung concentration", "setting": "[3]; [5]", "value": 76, "unit": "µg/mL"}, {"measurement": "Lung concentration", "setting": "[3]; [6]", "value": 76, "unit": "µg/mL"}, {"measurement": "Lung concentration", "setting": "[3]; [7]", "value": 54, "unit": "µg/mL"}, {"measurement": "Lung concentration", "setting": "[3]; [8]", "value": 54, "unit": "µg/mL"}]}]}
